Source: ChEMBL document CHEMBL5226342, “Novel Reversible-Binding PET Ligands for Imaging Monoacylglycerol Lipase Based on the Piperazinyl Azetidine Scaffold” (J Med Chem, 2021)
Active and inactive are the calls of the source.

How the values were obtained:
[1] = molecular target: T1, Monoglyceride lipase (Rattus norvegicus) (UniProt Q8R431); experiment: Binding affinity to MAGL in rat striatum incubated for 1 hr in presence of MAGL inhibitor, (1-(4-fluorophenyl)-1H-indol-5-yl)(3-(4-(pyrimidin-2-yl)piperazin-1-yl)azetidin-1-yl)methanone by autoradiography; type: tissue-based; details: tested as the 18F-labelled form
T1 sequence (whole entry): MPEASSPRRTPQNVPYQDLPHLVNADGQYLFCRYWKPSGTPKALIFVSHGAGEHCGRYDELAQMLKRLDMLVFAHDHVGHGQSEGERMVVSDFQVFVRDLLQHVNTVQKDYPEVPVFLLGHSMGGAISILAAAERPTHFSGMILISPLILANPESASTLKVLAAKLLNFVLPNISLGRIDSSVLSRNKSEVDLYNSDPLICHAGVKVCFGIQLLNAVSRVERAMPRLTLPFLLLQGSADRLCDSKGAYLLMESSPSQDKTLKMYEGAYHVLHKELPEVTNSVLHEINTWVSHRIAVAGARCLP

[2] = molecular target: T2, Neutral cholesterol ester hydrolase 1 (Mus musculus) (UniProt Q8BLF1); experiment: Displacement of FP-rhodamine from KIAA1363 in mouse brain membrane fraction preincubated for 30 mins followed by FP-rhodhamine addition for 10 mins by Activity-Based Protein Profiling analysis; type: cell membranes; details: time 40.0 min
T2 sequence (whole entry): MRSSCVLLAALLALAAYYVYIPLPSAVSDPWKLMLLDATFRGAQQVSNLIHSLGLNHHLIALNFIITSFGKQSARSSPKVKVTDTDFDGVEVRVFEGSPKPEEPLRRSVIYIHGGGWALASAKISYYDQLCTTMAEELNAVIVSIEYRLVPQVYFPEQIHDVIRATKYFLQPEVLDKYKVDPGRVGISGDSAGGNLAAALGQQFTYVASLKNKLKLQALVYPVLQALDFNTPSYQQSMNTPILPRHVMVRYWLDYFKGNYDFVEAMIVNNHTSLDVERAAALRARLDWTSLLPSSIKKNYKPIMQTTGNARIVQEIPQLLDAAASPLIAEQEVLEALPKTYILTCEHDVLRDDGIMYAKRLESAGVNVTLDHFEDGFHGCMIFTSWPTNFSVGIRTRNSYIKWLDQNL

[3] = Lipophilicity, logD of the compound by shake flask method; type: physicochemical; details: octanol/water
[4] = molecular target: T3, Lysophosphatidylserine lipase ABHD12 (Mus musculus) (UniProt Q99LR1); experiment: Displacement of FP-rhodamine from ABHD12 in mouse brain membrane fraction preincubated for 30 mins followed by FP-rhodhamine addition for 10 mins by Activity-Based Protein Profiling analysis; type: cell membranes; details: time 40.0 min
T3 sequence (whole entry): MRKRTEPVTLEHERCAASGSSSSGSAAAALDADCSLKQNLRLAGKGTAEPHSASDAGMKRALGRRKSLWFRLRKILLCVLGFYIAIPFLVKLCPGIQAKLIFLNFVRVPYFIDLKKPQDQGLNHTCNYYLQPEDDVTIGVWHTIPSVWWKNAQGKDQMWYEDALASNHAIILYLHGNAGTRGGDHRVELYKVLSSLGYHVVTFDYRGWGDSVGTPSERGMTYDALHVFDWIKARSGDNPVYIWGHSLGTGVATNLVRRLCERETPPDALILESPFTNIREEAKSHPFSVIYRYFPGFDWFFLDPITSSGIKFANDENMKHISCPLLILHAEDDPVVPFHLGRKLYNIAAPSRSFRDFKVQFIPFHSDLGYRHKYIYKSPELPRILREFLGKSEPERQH

hERG (KCNH2) = hERG (KCNH2) (Homo sapiens, UniProt Q12809); experiment: Inhibition of human ERG at 10 uM; type: toxicity
[5] = molecular target: T1, Monoglyceride lipase (Rattus norvegicus); experiment: Binding affinity to MAGL in rat cerebellum incubated for 1 hr in presence of MAGL inhibitor, (1-(4-fluorophenyl)-1H-indol-5-yl)(3-(4-(pyrimidin-2-yl)piperazin-1-yl)azetidin-1-yl)methanone by autoradiography; type: tissue-based; details: tested as the 18F-labelled form
[6] = molecular target: T4, Monoglyceride lipase (Mus musculus) (UniProt O35678); details: Brain, Membrane, dose 50.0 nM, time 35-210 min
T4 sequence (whole entry): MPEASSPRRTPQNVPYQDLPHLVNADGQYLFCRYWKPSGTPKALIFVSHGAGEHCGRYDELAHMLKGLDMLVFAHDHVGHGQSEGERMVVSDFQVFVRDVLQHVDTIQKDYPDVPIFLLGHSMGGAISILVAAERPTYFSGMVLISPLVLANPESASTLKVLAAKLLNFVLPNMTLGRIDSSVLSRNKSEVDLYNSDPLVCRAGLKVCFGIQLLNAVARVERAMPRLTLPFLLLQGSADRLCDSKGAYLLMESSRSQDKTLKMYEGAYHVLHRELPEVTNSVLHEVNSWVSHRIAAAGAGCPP

[7] = molecular target: T1, Monoglyceride lipase (Rattus norvegicus); experiment: Binding affinity to MAGL in rat hippocampus incubated for 1 hr in presence of MAGL inhibitor, (1-(4-fluorophenyl)-1H-indol-5-yl)(3-(4-(pyrimidin-2-yl)piperazin-1-yl)azetidin-1-yl)methanone by autoradiography; type: tissue-based; details: tested as the 18F-labelled form
[8] = molecular target: T5, Monoacylglycerol lipase ABHD6 (Mus musculus) (UniProt Q8R2Y0); experiment: Displacement of FP-rhodamine from ABHD6 in mouse brain membrane fraction preincubated for 30 mins followed by FP-rhodhamine addition for 10 mins by Activity-Based Protein Profiling analysis; type: cell membranes; details: time 40.0 min
T5 sequence (whole entry): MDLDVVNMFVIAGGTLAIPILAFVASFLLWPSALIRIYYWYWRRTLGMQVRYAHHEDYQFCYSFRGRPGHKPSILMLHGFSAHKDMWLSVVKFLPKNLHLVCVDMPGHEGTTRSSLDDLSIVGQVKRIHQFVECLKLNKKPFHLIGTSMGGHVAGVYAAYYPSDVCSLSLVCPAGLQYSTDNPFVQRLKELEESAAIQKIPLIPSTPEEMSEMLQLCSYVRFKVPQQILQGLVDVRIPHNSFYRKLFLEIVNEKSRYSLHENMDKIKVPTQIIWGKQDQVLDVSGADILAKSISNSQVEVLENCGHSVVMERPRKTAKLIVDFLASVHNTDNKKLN

[9] = molecular target: CaV1.2 (voltage-dependent L-type calcium channel subunit alpha-1C) (Homo sapiens, UniProt Q13936); experiment: Inhibition of human CaV1.2 at 10 uM
[10] = molecular target: T6, Fatty-acid amide hydrolase 1 (Mus musculus) (UniProt O08914); experiment: Displacement of FP-rhodamine from FAAH in mouse brain membrane fraction preincubated for 30 mins followed by FP-rhodhamine addition for 10 mins by Activity-Based Protein Profiling analysis; type: cell membranes; details: time 40.0 min
T6 sequence (whole entry): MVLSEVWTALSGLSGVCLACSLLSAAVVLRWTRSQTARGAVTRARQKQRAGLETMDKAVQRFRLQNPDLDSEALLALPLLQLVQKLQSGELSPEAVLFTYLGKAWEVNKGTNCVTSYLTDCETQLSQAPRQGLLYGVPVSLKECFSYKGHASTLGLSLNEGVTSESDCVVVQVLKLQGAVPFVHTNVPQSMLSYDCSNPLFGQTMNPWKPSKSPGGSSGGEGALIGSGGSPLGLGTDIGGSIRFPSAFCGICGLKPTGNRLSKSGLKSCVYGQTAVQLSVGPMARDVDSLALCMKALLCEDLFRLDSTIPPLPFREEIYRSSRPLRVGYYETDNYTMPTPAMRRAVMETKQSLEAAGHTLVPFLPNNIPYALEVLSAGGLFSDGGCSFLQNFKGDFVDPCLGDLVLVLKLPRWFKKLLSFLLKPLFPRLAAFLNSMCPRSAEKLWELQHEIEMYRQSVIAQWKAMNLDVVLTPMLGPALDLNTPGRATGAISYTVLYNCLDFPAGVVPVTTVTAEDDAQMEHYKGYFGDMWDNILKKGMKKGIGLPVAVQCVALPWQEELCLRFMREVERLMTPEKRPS

[11] = molecular target: T1, Monoglyceride lipase (Rattus norvegicus); experiment: Binding affinity to MAGL in rat cortex incubated for 1 hr in presence of MAGL inhibitor, (1-(4-fluorophenyl)-1H-indol-5-yl)(3-(4-(pyrimidin-2-yl)piperazin-1-yl)azetidin-1-yl)methanone by autoradiography; type: tissue-based; details: tested as the 18F-labelled form
[12] = molecular target: T1, Monoglyceride lipase (Rattus norvegicus); experiment: Binding affinity to MAGL in rat thalamus incubated for 1 hr in presence of MAGL inhibitor, (1-(4-fluorophenyl)-1H-indol-5-yl)(3-(4-(pyrimidin-2-yl)piperazin-1-yl)azetidin-1-yl)methanone by autoradiography; type: tissue-based; details: tested as the 18F-labelled form
[13] = molecular target: T4, Monoglyceride lipase (Mus musculus); experiment: Irreversible inhibition of MAGL in mouse brain membrane fraction assessed as enzyme recovery by measuring FP-rhodamine reactivity at 50 nM preincubated for 30 mins followed by FP-rhodamine challenge for 5 to 180 mins by Activity-Based Protein Profiling analysis; type: cell membranes; details: time 35-210 min
[14] = Drug uptake in iv dosed rhesus monkey cerebellum measured after 60 mins by PET imaging based analysis; type: ADME, organism-based, Macaca mulatta; details: in vivo, 1 h
[15] = Metabolic stability of the compound in iv dosed Sprague-Dawley rat plasma assessed as parent compound remaining measured after 60 mins by radio-HPLC analysis; type: ADME, organism-based; details: read-out: Stability
[16] = Drug uptake in iv dosed rhesus monkey pons measured after 60 mins by PET imaging based analysis; type: ADME, organism-based, Macaca mulatta; details: in vivo, 1 h
[17] = Drug uptake in iv dosed rhesus monkey pons by PET imaging based analysis; type: ADME, organism-based, Macaca mulatta; details: in vivo
[18] = Metabolic stability of the compound in iv dosed Sprague-Dawley rat plasma assessed as parent compound remaining measured after 30 mins by radio-HPLC analysis; type: ADME, organism-based; details: read-out: Stability
[19] = Drug uptake in iv dosed rhesus monkey striatum by PET imaging based analysis; type: ADME, organism-based, Macaca mulatta; details: in vivo
[20] = Drug uptake in iv dosed Sprague-Dawley rat striatum measured for 90 mins by PET imaging based analysis; type: ADME, organism-based; details: in vivo, 1.5 h
[21] = Drug uptake in iv dosed rhesus monkey cortex measured after 60 mins by PET imaging based analysis; type: ADME, organism-based, Macaca mulatta; details: in vivo, 1 h
[22] = Metabolic stability of the compound in iv dosed Sprague-Dawley rat brain assessed as parent compound remaining measured after 30 mins by radio-HPLC analysis; type: ADME, organism-based; details: read-out: Stability
[23] = Drug uptake in iv dosed Sprague-Dawley rat cerebral cortex measured for 90 mins by PET imaging based analysis; type: ADME, organism-based; details: in vivo, 1.5 h
[24] = Drug uptake in mouse brain treated with MAGL inhibitor, JNJ-42226314 at 15 mins post-drug administration by PET imaging based analysis; type: ADME, tissue-based; details: in vivo, 0.25 h
[25] = Metabolic stability of the compound in iv dosed Sprague-Dawley rat brain assessed as parent compound remaining measured after 60 mins by radio-HPLC analysis; type: ADME, organism-based; details: read-out: Stability
[26] = Drug uptake in iv dosed CD-1 mouse kidney measured after 60 mins by Ex vivo whole body biodistribution based analysis; type: ADME, organism-based; details: 1 h
[27] = Drug uptake in iv dosed CD-1 mouse small intestine measured after 60 mins by Ex vivo whole body biodistribution based analysis; type: ADME, organism-based; details: 1 h
[28] = Drug uptake in iv dosed CD-1 mouse liver measured after 60 mins by Ex vivo whole body biodistribution based analysis; type: ADME, organism-based; details: 1 h
[29] = Drug uptake in iv dosed Sprague-Dawley rat cerebellum measured for 90 mins by PET imaging based analysis; type: ADME, organism-based; details: in vivo, 1.5 h
[30] = Drug uptake in iv dosed CD-1 mouse lung measured after 60 mins by Ex vivo whole body biodistribution based analysis; type: ADME, organism-based; details: 1 h
[31] = Drug uptake in iv dosed rhesus monkey cerebellum by PET imaging based analysis; type: ADME, organism-based, Macaca mulatta; details: in vivo
[32] = Drug uptake in iv dosed rhesus monkey hippocampus measured after 60 mins by PET imaging based analysis; type: ADME, organism-based, Macaca mulatta; details: in vivo, 1 h
[33] = Drug uptake in iv dosed rhesus monkey hippocampus by PET imaging based analysis; type: ADME, organism-based, Macaca mulatta; details: in vivo
[34] = Drug uptake in iv dosed CD-1 mouse pancreas measured after 60 mins by Ex vivo whole body biodistribution based analysis; type: ADME, organism-based; details: 1 h
[35] = Drug uptake in iv dosed rhesus monkey brain by PET imaging based analysis; type: ADME, organism-based, Macaca mulatta; details: in vivo
[36] = Drug uptake in iv dosed CD-1 mouse heart measured after 60 mins by Ex vivo whole body biodistribution based analysis; type: ADME, organism-based; details: 1 h
[37] = Drug uptake in iv dosed rhesus monkey cortex by PET imaging based analysis; type: ADME, organism-based, Macaca mulatta; details: in vivo
[38] = Drug uptake in iv dosed Sprague-Dawley rat pons measured for 90 mins by PET imaging based analysis; type: ADME, organism-based; details: in vivo, 1.5 h
[39] = Drug uptake in iv dosed rhesus monkey striatum measured after 60 mins by PET imaging based analysis; type: ADME, organism-based, Macaca mulatta; details: in vivo, 1 h
[40] = Drug uptake in iv dosed Sprague-Dawley rat hippocampus measured for 90 mins by PET imaging based analysis; type: ADME, organism-based; details: in vivo, 1.5 h

Sequence of hERG (KCNH2) (Q12809 whole entry): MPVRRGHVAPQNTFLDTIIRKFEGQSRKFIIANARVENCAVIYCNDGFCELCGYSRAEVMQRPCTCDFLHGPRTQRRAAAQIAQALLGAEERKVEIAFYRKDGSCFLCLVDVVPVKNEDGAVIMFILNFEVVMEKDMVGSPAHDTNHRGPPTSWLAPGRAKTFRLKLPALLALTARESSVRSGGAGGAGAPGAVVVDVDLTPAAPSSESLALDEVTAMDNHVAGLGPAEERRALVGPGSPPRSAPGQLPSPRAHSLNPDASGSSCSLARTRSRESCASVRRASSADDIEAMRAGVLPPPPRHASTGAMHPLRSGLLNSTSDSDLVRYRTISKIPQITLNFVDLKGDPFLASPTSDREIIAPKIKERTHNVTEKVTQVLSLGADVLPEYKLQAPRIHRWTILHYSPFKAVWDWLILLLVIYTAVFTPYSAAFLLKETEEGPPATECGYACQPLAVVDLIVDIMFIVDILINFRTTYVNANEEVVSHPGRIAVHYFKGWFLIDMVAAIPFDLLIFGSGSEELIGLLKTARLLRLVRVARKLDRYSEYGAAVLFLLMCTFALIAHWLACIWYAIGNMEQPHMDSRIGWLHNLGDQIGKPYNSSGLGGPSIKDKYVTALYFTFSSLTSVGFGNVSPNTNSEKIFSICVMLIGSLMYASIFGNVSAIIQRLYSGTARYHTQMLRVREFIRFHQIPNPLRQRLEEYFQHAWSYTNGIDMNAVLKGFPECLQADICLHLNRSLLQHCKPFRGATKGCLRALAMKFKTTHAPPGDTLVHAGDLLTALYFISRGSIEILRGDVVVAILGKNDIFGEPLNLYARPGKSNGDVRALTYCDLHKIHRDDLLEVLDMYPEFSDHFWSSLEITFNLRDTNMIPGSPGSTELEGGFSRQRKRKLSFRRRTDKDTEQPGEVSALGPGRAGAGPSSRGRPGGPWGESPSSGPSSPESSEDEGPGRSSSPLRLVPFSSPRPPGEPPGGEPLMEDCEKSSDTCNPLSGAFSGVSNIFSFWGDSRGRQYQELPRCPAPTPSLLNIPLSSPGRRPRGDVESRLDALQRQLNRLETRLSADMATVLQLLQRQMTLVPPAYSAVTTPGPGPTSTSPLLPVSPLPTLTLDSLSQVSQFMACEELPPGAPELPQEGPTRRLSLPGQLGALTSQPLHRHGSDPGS
Sequence of CaV1.2 (voltage-dependent L-type calcium channel subunit alpha-1C) (Q13936 whole entry): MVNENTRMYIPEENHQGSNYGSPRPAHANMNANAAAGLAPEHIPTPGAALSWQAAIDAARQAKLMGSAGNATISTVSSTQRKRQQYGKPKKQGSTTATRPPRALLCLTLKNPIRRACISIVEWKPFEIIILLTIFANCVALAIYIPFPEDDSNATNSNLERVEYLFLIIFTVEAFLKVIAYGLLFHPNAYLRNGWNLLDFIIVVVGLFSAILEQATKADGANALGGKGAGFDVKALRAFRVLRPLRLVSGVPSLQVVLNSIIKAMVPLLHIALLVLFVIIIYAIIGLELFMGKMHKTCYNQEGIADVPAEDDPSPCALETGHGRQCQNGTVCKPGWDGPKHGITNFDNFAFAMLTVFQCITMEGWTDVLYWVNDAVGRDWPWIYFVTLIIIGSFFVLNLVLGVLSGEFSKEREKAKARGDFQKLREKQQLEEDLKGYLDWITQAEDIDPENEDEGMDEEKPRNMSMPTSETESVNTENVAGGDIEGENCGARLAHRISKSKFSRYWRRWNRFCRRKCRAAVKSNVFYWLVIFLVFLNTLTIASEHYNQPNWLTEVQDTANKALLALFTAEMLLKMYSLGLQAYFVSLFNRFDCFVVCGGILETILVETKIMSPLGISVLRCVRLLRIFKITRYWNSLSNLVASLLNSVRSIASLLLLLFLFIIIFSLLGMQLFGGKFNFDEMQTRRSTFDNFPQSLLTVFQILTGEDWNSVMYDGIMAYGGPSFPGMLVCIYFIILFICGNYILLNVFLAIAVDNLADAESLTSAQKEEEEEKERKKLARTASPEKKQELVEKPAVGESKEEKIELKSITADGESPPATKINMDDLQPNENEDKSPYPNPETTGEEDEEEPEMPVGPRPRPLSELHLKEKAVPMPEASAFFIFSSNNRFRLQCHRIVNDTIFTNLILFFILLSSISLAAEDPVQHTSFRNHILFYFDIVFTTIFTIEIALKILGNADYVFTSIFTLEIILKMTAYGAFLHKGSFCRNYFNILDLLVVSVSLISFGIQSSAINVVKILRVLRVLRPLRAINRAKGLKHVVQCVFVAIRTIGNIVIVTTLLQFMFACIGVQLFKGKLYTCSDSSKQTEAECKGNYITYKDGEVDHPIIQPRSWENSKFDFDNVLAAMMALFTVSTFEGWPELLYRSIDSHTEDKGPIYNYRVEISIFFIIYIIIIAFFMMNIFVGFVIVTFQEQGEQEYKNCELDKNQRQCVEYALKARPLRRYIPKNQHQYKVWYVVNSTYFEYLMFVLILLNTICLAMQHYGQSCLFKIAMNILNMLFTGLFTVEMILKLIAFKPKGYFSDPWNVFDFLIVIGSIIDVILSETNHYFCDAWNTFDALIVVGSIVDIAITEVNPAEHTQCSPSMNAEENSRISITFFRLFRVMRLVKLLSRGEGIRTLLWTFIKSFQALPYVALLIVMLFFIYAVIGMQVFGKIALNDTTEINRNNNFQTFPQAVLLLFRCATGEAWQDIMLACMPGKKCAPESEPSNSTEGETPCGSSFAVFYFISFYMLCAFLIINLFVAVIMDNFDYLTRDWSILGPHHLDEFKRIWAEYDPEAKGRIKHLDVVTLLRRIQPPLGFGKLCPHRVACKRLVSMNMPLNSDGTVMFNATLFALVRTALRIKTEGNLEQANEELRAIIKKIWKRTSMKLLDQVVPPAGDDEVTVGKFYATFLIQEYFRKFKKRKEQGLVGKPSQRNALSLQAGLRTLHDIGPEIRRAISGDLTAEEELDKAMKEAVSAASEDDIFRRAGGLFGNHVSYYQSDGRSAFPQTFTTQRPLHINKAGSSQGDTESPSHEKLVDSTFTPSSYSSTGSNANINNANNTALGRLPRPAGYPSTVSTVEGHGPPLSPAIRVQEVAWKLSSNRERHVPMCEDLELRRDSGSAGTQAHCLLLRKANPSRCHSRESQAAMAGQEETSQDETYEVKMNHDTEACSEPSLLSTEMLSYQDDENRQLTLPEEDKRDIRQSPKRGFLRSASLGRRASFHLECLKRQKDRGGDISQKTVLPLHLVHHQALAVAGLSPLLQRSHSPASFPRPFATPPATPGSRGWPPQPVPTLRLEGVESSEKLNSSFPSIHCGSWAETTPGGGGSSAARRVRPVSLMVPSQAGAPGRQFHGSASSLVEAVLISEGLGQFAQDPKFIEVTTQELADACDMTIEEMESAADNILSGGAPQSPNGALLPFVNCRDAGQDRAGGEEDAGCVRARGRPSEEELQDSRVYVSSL

O=C(c1ccc2c(ccn2-c2ccc(F)cc2)c1)N1CC(N2CCN(c3ncccn3)CC2)C1
inactive: Activity [1] | inhibition [2] | inhibition [4] | Activity [5] | Activity [7] | inhibition [8] | inhibition [10] | Activity [11] | Activity [12]
< 50%: inhibition at 10 µM (hERG (KCNH2)) | inhibition at 10 µM [9]
active: inhibition [6]
3.68: logD [3]

O=C(c1ccc2c(ccn2-c2ccc(F)cc2)c1)N1CC(N2CCN(C(=O)c3nccs3)CC2)C1
inactive: inhibition [2] | inhibition [4] | inhibition [8] | inhibition [10]
3.28: logD [3]

O=C(ON1C(=O)CCC1=O)N1CCN(C(c2ccc(Cl)cc2)c2ccc(Cl)cc2)CC1
active: inhibition [13]

O=C(c1ccc2c(ccn2-c2ccc([18F])cc2)c1)N1CC(N2CCN(C(=O)c3nccs3)CC2)C1
0.9: SUVmax [35]
56%: remaining at 1 h [15]
81%: remaining at 0.5 h [18]
0.8: SUVmax [23]
94%: remaining at 1 h [25]
Not Active: Drug uptake [14] | Drug uptake [16] | Drug uptake [21] | Drug uptake [24] | Drug uptake [26] | Drug uptake [30] | Drug uptake [32] | Drug uptake [34] | Drug uptake [36] | Drug uptake [39]
Active: Drug uptake [17] | Drug uptake [19] | Drug uptake [20] | Drug uptake [27] | Drug uptake [28] | Drug uptake [29] | Drug uptake [31] | Drug uptake [33] | Drug uptake [37] | Drug uptake [38] | Drug uptake [40]
97%: remaining at 0.5 h [22]
